This is an account of results in patent US20260174875A1 (Novo Nordisk A/S, priority 2023, published 2026).

The test system of series [1] is Male Sprague Dawley (SD) rats. Put plainly: Efficacy testing on appetite: acute food intake in ad libitum fed normal weight rats. The series is classed as in vivo, rat. The note with it: for Food intake (relative to vehicle) Day 1: day 1 [0-24 hours]; for Food intake (relative to vehicle) Day 2: day 2 [24-48 hours]; for Food intake (relative to vehicle) Day 3: day 3 [48-72 hours]. An excerpt:
Male Sprague Dawley (SD) rats from Taconic, Denmark were used for the acute food intake experiments, wherein the principles of laboratory animal care were followed.
The rats arrived at least 10-14 days before the start of the experiment to allow acclimatization to experimental settings. During this period, the animals were handled (fixation by restrain in neck skin) at least 2 times. Immediately upon arrival, rats were changed to a reversed light cycle (dark from 11 am-11 pm) and were transferred to an automated food intake measuring system (HM2 system, MBRose; Faaborg, Denmark). […] To enable recording of individual food intake, rats were ID chipped. Three rats were housed in each cage. During the acclimatization period, in which the rats get used to the new light cycle and diet (LF 10% (D12450B), from Research Diets Inc.), the animals had free access to food and water. Since rats are normally active and consume most of their daily calories during the dark period, rats were dosed in the morning right before lights were turned off. Such a set-up results in the lowest data variation and highest test sensitivity. […] In each cage there were animals from three different treatment groups (to eliminate potential cage effects (e.g. cage malfunction) on primary readout: food intake). The rats were dosed once subcutaneously (s.c.) with the peptide of interest according to body weight (10 or 30 nmol/kg) in vehicle (0.5 ml/kg) using a NovoPen® (Novo Nordisk, Bagsvæed, Denmark).
The compounds of the invention were formulated (20 or 60 nmol/ml) in the following vehicle: 8 mM phosphate; 250 mM glycerol; 0.007% polysorbate 20, pH 7.4.
After dosing, the rats were returned to their home cages, where they continued to have ad libitum access to chow and water. The food consumption was recorded individually and continuously by the HM2 system from 0-72 h after test compound administration. Data obtained by the HM-2 system were stored in a HMBase SQL database (Firebird® relational database management system) and were processed by HM2Lab software (MBRose; Faaborg, Denmark) installed in an embedded computer. The feeding system is a highly sensitive system with a load resolution of 0.001 g.

The nature of series [2]: Pharmacokinetic study in minipigs (i.v.). The note with it: female, Göttingen, minipig, plasma, iv; i.v. administration to minipigs, 2 nmol/kg; read-out: Terminal half-life t1/2 (converted). The series is classed as in vivo, Göttingen minipigs. On the procedure:
This is done in a pharmacokinetic (PK) study, where the terminal half-life (t1/2) of the compound or derivative in question is determined. By terminal half-life is meant the time it takes to halve a certain plasma concentration in the terminal elimination phase.
Female Göttingen minipigs, obtained from Ellegaard Göttingen Minipigs (Dalmose, Denmark), approximately 8-12 months of age and weighing approximately 20-30 kg were used in the studies.
After three weeks of acclimatisation two permanent central venous catheters were implanted in vena cava caudalis in each animal. The animals were allowed at least 10 days recovery after the surgery and were then used for repeated pharmacokinetic studies with a suitable wash-out period between successive dosing.
The compounds of the invention were formulated (40 nmol/ml) in the following vehicle: 8 mM phosphate; 250 mM glycerol; 0.007% polysorbate 20, pH 7.4.
Blood samples (for example 1.3 ml) were collected in EDTA (1.3 ml tube containing K3EDTA to yield 1.6 mg K3EDTA/ml blood) coated tubes and then centrifuged at 4° C. and 2000×g for 10 minutes.
Plasma was within 30 min after centrifugation pipetted into Micronic tubes stored on dry ice and were afterwards kept at −20° C. until analysed for plasma concentration of the compounds using LCMS.
Plasma concentrations of the peptides of the invention were assayed by plasma protein precipitation and analysed by liquid chromatography mass spectrometry (LC-MS). Calibrators were prepared by spiking blank plasma from minipigs with the compounds in the typical range from 0.05 to 200 nM. […] The supernatant was diluted with 1 volumes of Milli-Q water containing 1% Formic acid before injection on the LC-MS system. Individual plasma concentration-time profiles were analysed by a non-compartmental pharmacokinetic method (NCA) in Phoenix v. 6.4 (Pharsight Inc., Mountain View, CA, USA), and the resulting terminal half-lives (harmonic mean) determined. The LC-MS analysis was carried out using a TurboFlow HPLC system from Thermo Fisher Scientific (Bremen, Germany) coupled to either a Q Exactive Orbitrap or Altis Triple Quadrupole (TQ) Mass Spectrometer. […] The Orbitrap mass spectrometer were operating in positive ionization mode with a spray voltage of 4.0 kV using Parallel Reaction Monitoring scan mode using 5 m/z isolation windows on the most abundant charge state of the compounds with a resolution of 35K on the Orbitrap MS.
The data was processed using the Quan Browser in the Xcalibur software from Thermo Fisher Scientific (Bremen, Germany) by fitted the data to linear calibration curves (weighed 1/x^2), used for calculating the concentration in the plasma samples. Quality control samples were included.

Series [3] can be described thus: Chemical stability assessment in formulation (UPLC-UV-MS purity loss at 37° C.). The following applies: 8 mM phosphate buffer pH 7.4, 1 mg/mL, 2 weeks. The format is physicochemical. In short, it runs like this: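 Degradation tracked by UPLC-UV-MS (formic acid/acetonitrile gradient) on samples drawn over 2 weeks at 37° C. Solutions were made at a 1 mg/mL target in 8 mM phosphate, pH 7.4, kept in sealed vials and frozen after sampling.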

Numbered stars: 1 amine (or outer) side, 2 acyl side, 3 side chain; on linkers, the order of the positions; unused ones are H or OH. Square brackets hold non-standard residues; d marks the D form. Side chains are listed from the residue outwards. * marks the point of attachment. C20 diacid = O=C(O)CCCCCCCCCCCCCCCCCCC(=O)*; C18 diacid = O=C(O)CCCCCCCCCCCCCCCCC(=O)*; C16 diacid = O=C(O)CCCCCCCCCCCCCCC(=O)*; γGlu = O=C(O)[C@H](CCC(=O)[*:2])N[*:1]; AEEA = NCCOCCOCC(=O)O; Aib = CC(C)(N)C(=O)O

“H[Aib]HGTFTSDYSILLEEQAAREFIEWLLAGGPSK([AEEA-AEEA-γGlu-C16 diacid])GAPPPSGGGEASELSTAALGRLSAELHELATLPRTETGSGSP-NH2 [Compound 12]”: in series [1] (single dose 10 nmol/kg), the “Food intake (relative to vehicle) Day 1” value was −70%, the “Food intake (relative to vehicle) Day 2” value is on record as −39% and the “Food intake (relative to vehicle) Day 3” value is on record as −8%. The half-life in series [2] was 3.38 days. Besides, the “Purity loss per week at 37° C.” value in series [3] was 5.6%.
The like results for “H[Aib]HGTFTSDYSILLEEQAAREFIEWLLAGGPSK([AEEA-AEEA-γGlu-C16 diacid])GAPPPSGGGEASHLSTAQTARLSAELHRLADLPRTETGSGSP-NH2 [Compound 61]” were, in that order, −86%, −92%, −34%, 2.54 days and 2.0%.
For “H[Aib]HGTFTSDYSILLEEQAAREFIEWLLAGGPSK([AEEA-AEEA-γGlu-C18 diacid])GAPPPSGGGEASELSTAALGRLSAELHELATLPRTETGSGSP-NH2 [Compound 15]”, in series [1] (single dose 10 nmol/kg), the “Food intake (relative to vehicle) Day 1” value is recorded as −30%, the “Food intake (relative to vehicle) Day 2” value was −42% and the “Food intake (relative to vehicle) Day 3” value is listed as −9%. For the same substance, the half-life in series [2] is 5.08 days. The “Purity loss per week at 37° C.” value in series [3] came to 3.8%.
Regarding “H[Aib]HGTFTSDYSILLEEQAAREFIEWLLAGGPSK([AEEA-AEEA-γGlu-C18 diacid])GAPPPSGGGEASHLSTAQTARLSAELHQLATLPRTETGSGSP-NH2 [compound 101]”, in series [2], the half-life was 5.08 days.
Turning to “H[Aib]HGTFTSDYSILLEEQAAREFIEWLLAGGPSK([AEEA-AEEA-γGlu-C18 diacid])GEASQLSTAALGRLSAELHQLATLPRTETGSGSP-NH2 [Compound 64]”, the half-life in series [2] is 4.88 days. Moreover, the “Purity loss per week at 37° C.” value in series [3] turned out to be 3.3%.
Regarding “H[Aib]HGTFTSDYSILLEEQAAREFIEWLLAGGPSK([AEEA-AEEA-γGlu-C20 diacid])GAPPPSGGGEASELSTAALGRLSAELHELATLPRTETGSGSP-NH2 [Compound 16]”, in series [1] (single dose 10 nmol/kg), the “Food intake (relative to vehicle) Day 1” value is −17%, the “Food intake (relative to vehicle) Day 2” value is recorded as −11% and the “Food intake (relative to vehicle) Day 3” value is listed as −10%. Besides, in series [1] (single dose 30 nmol/kg), the “Food intake (relative to vehicle) Day 1” value was −39%, the “Food intake (relative to vehicle) Day 2” value is on record as −22% and the “Food intake (relative to vehicle) Day 3” value is recorded as −17%. In addition, in series [2], the half-life was 5.75 days.
On to “H[Aib]HGTFTSDYSILLEEQAAREFIEWLLAGGPSSGAGQAPGQAPGASHLSTAQTQRLSAELHRLK([AEEA-AEEA-γGlu-C18 diacid])TLPRTETGSGSP-NH2 [Compound 91]”, for which, in series [1] (single dose 10 nmol/kg), the “Food intake (relative to vehicle) Day 1” value is given as −96%, the “Food intake (relative to vehicle) Day 2” value is −84% and the “Food intake (relative to vehicle) Day 3” value was −33%. The half-life in series [2] was 1.79 days. Besides, in series [3], the “Purity loss per week at 37° C.” value worked out at 2.8%.
On the same counts, the results for “H[Aib]HGTFTSDYSILLEEQAAREFIEWLLAGGPSSGAGQAPGQAPLASHLSTAQTQRLSAELHK([AEEA-AEEA-γGlu-C18 diacid])LATLPRTETGSGSP-NH2 [Compound 93]” are −94%, −61%, −25%, 2.88 days and 2.8%.
“Y[Aib]EGTFTSDYSILLEEQAAREFIEWLLAGGPSK([AEEA-AEEA-γGlu-C16 diacid])GEASELSTAALGRLSAELHELATLPRTETGSGSP-NH2 [Compound 11]”: in series [1] (single dose 30 nmol/kg), the “Food intake (relative to vehicle) Day 1” value was −46%, the “Food intake (relative to vehicle) Day 2” value is given as −45% and the “Food intake (relative to vehicle) Day 3” value is reported as −27%. Also, the half-life in series [2] was 4.96 days.
Turning to “Y[Aib]EGTFTSDYSILLEEQAAREFIEWLLAGGPSRGEASHLSTAQTQRLSAELHK([AEEA-AEEA-γGlu-C18 diacid])LATLPRTETGSGSP-NH2 [compound 68]”, the half-life in series [2] is 5.21 days.
Same read-out and setting: the value for “Y[Aib]EGTFTSDYSILLEEQAAREFIEWLLAGGPSSGAGQAPGQAPGASHLSTAQTQRLSAELHK([AEEA-AEEA-γGlu-C18 diacid])LATLPRTETGSGSP-NH2 [compound 52]” was 5 days.
In the case of “Y[Aib]EGTFTSDYSILLEEQAAREFIEWLLAGGPSSGAGQAPGQAPGASHLSTAQTQRLSAELHRLATLPK([AEEA-AEEA-γGlu-C18 diacid])TETGSGSP-NH2 [Compound 57]”, in series [1] (single dose 10 nmol/kg), the “Food intake (relative to vehicle) Day 1” value is listed as −75%, the “Food intake (relative to vehicle) Day 2” value is given as −88% and the “Food intake (relative to vehicle) Day 3” value is reported as −14%. Besides, in series [2], the half-life is 3.75 days. For the same substance, the “Purity loss per week at 37° C.” value in series [3] worked out at 0.2%.
Consider “Y[Aib]EGTFTSDYSILLEEQAAREFIEWLLAGGPSSGAGQAPGQAPGASHLSTAQTQRLSAK([AEEA-AEEA-γGlu-C18 diacid])LHRLATLPRTETGSGSP-NH2 [compound 55]”, for which the half-life in series [2] was 3.67 days.
The same measure, in the same setting: the value for “Y[Aib]EGTFTSDYSILLEEQAAREFIEWLLAGGPSSGAGQAPGQAPLASHLSTAQTQRLSAELHK([AEEA-AEEA-γGlu-C18 diacid])LATLPRTETGSGSP-NH2 [compound 58]” was 4.04 days.
Take “Y[Aib]EGTFTSDYSILLEEQAAREFIEWLLAGGPSSGEASHLSTAQTQRLSAK([AEEA-AEEA-γGlu-C18 diacid])LHRLATLPRTETGSGSP-NH2 [Compound 79]”: in series [1] (single dose 10 nmol/kg), the “Food intake (relative to vehicle) Day 1” value is on record as −70%, the “Food intake (relative to vehicle) Day 2” value is −54% and the “Food intake (relative to vehicle) Day 3” value is reported as −5%. Further, the “Purity loss per week at 37° C.” value in series [3] turned out to be 1.3%.
